Data as given in ChEMBL document CHEMBL5528001, “Synthetic product-based approach toward potential antileishmanial drug development” (Eur J Med Chem, 2024).
pEC50, pIC50: −log10 of the molar value. In brackets after ≈: the same amount, converted by molar mass. Each block holds one compound with its values, some of them ahead of it.

Tests used:
Leishmania donovani [1] = experiment: Antileishmanial activity against Leishmania donovani promastigotes assessed as inhibition of parasite growth; type: functional, organism-based
Leishmania amazonensis [2] = experiment: Antileishmanial activity against Leishmania amazonensis promastigotes assessed as inhibition of parasite growth; type: functional; parameters: scale not given: the % may be the effect or the level left
Leishmania major [3] = experiment: Antileishmanial activity against Leishmania major amastigotes assessed as reduction in parasite growth incubated for 48 hrs by resazurin dye based analysis; type: functional, organism-based
Leishmania major [4] = experiment: Antileishmanial activity against Leishmania major assessed as reduction in parasite growth; type: functional, organism-based
Leishmania infantum [5] = experiment: Antileishmanial activity against Leishmania infantum MHOM/BR/1972/BH46 promastigotes assessed as reduction in parasite viability measured for 48 hrs by PI staining based flow cytometry analysis; type: functional, organism-based; settings: MHOM/BR/1972/BH46, 48 h
Leishmania infantum [6] = experiment: Antileishmanial activity against Leishmania infantum MHOM/BR/1972/BH46 amastigotes assessed as reduction in cell viability measured for 48 hrs by PI staining based flow cytometry analysis; type: functional, organism-based; settings: MHOM/BR/1972/BH46, 48 h
Leishmania aethiopica = experiment: Antileishmanial activity against Leishmania aethiopica amastigotes assessed as inhibition of parasite growth measured after 24 hrs by Alamar blue based analysis; type: functional, organism-based
Leishmania infantum [7] = experiment: Antileishmanial activity against Leishmania infantum promastigote assessed as reduction in parasite growth after 72 hrs by MTT assay; type: functional, organism-based
J774.A1 = experiment: Cytotoxicity against mouse J774.A1 cells assessed as reduction in cell viability incubated for 72 hrs by MTT assay; type: functional
Leishmania amazonensis [8] = experiment: Antileishmanial activity against Leishmania amazonensis MHOM/BR/75/Josefa promastigotes assessed as reduction in parasite viability after 72 hrs by Neubauer chamber counting method; type: functional, organism-based
[9] = Antileishmanial activity against Leishmania infantum BCN-150 promastigotes assessed as reduction in parasite growth incubated for 48 hrs by MTT assay; type: functional
Leishmania major [10] = experiment: Antileishmanial activity against Leishmania major MHOM/IL/80/Friendlin assessed as reduction in parasite growth incubated for 48 hrs by MTT assay; type: functional, organism-based
HT-29 = experiment: Antiproliferative activity against human HT-29 cells assessed as reduction in cell viability incubated for 48 hrs by MTT assay; type: functional, cell-based; settings: HT-29, 48 h
NCI-H1299 = experiment: Antiproliferative activity against human NCI-H1299 cells assessed as reduction in cell viability incubated for 48 hrs by MTT assay; type: functional, cell-based; settings: NCI-H1299, 48 h
Leishmania donovani [11] = experiment: Antileishmanial activity against Leishmania donovani MHOM/IN/00/DEVI assessed as inhibition of parasite growth measured for 48 hrs by MTT assay; type: functional, organism-based
HepG2 [12] = experiment: Cytotoxicity against human HepG2 cells assessed as reduction in cell growth measured after 48 hrs by SRB assay; type: functional
Leishmania major [13] = experiment: Antileishmanial activity against Leishmania major promastigotes assessed as reduction in parasite viability measured after 72 hrs by Giemsa-staining based microscopic analysis; type: functional, organism-based
Leishmania amazonensis [14] = experiment: Antileishmanial activity against Leishmania amazonensis IFLA/BR/1967/PH8 amastigotes infected in murine peritoneal macrophages incubated for 24 hrs by Giemsa staining based analysis; type: functional, organism-based; settings: IFLA/BR/1967/PH8, 24 h
Leishmania donovani [15] = experiment: Antileishmanial activity against Leishmania donovani MHOM/SD/62/1S amastigotes assessed as reduction in cell growth; type: functional, organism-based
Leishmania donovani [16] = experiment: Antileishmanial activity against Leishmania donovani amastigotes infected in human THP-1 cells assessed as inhibition of parasite infection incubated for 72 hrs by DAPI staining based assay; type: functional, organism-based; settings: THP-1, 72 h
Leishmania donovani [17] = experiment: Antileishmanial activity against Leishmania donovani amastigotes infected in J774.A1 macrophage assessed as inhibition of parasite growth by luciferase assay; type: functional, organism-based
Leishmania donovani [18] = experiment: Antileishmanial activity against Leishmania donovani promastigotes assessed as parasitic proliferation inhibition incubated for 3 days by resazurin dye based assay; type: functional, organism-based
Leishmania major [19] = experiment: Antileishmanial activity against Leishmania major amastigotes assessed as reduction in parasite viability measured for 72 hrs by Giemsa-staining based microscopic analysis; type: functional, organism-based
HepG2 [20] = experiment: Antiproliferative activity against human HepG2 cells assessed as reduction in cell viability incubated for 72 hrs by MTT assay; type: functional, cell-based; settings: HepG2, 72 h
Leishmania donovani [21] = experiment: Antileishmanial activity against Leishmania donovani promastigotes assessed as parasite growth inhibition incubated for 72 hrs by alamar blue staining based assay; type: functional, organism-based

Structure (SMILES): Cc1cc(O)c(C(=O)Nc2ccccc2)c(=O)n1Cc1ccc(Cl)cc1
pIC50 (Leishmania donovani [1]): 4.26

Structure (SMILES): CC(C)CC1NC(=S)NC1=O (centres undefined)
Activity (Leishmania amazonensis [2]): 32%

Structure (SMILES): Cc1cc(O)c(C(=O)Nc2ccccc2)c(=O)n1Cc1cccc(Cl)c1Cl
pIC50 (Leishmania donovani [1]): 4.26

Structure (SMILES): CC(C)(C)c1ccc(COc2ccc(C(=O)N/N=C\c3ccc([N+](=O)[O-])o3)cc2)cc1
pIC50 (Leishmania major [3]): 6.72

Structure (SMILES): Cc1ccc2nc(C)c(C(=O)N3CCN(Cc4cn(-c5ccc(C(C)(C)C)cc5)nn4)CC3)n2c1
pIC50 (Leishmania major [4]): 4.82

Structure (SMILES): CCCc1cc(OC)c2oc(=O)c(C(=O)c3ccc([N+](=O)[O-])cc3)cc2c1
pIC50 (Leishmania infantum [5]): 4.92
pIC50 (Leishmania infantum [6]): 5.17

Structure (SMILES): Cc1nc2ccc(Cl)cn2c1C(=O)N1CCN(Cc2cn(-c3ccc(Br)cc3)nn2)CC1
pIC50 (Leishmania major [4]): 4.82

Structure (SMILES): c1ccc(-c2nn(-c3ccccc3)cc2C2=NCCS2)cc1
IC50 (Leishmania aethiopica): 1.02 µg/mL (≈ 3.34 µM)

Structure (SMILES): CC1(C)CC(=O)c2cc(CNC(=O)CCCCCCCCBr)ccc2S1
pIC50 (Leishmania infantum [7]): 5.14
CC50 (J774.A1): 58 µM

Structure (SMILES): NC(=O)[C@@H]1CSC(c2cn(-c3ccccc3)nc2-c2ccccc2)N1 (some centres undefined)
IC50 (Leishmania aethiopica): 1.02 µg/mL (≈ 2.91 µM)

Structure (SMILES): Cc1nc2ccc(Cl)cn2c1C(=O)N1CCN(Cc2cn(-c3ccc(Cl)cc3)nn2)CC1
pIC50 (Leishmania major [4]): 4.82

Structure (SMILES): CN(C)c1ccc(-c2nc(C3=NCCO3)cc3c2[nH]c2ccccc23)cc1
pIC50 (Leishmania amazonensis [8]): 5.21

Structure (SMILES): N#C[Se]c1ccc2c(c1)OCO2
pIC50 [9]: 5.48
pIC50 (Leishmania major [10]): 5.34
pIC50 (HT-29): 4.21
pIC50 (NCI-H1299): 4.08

Structure (SMILES): C(=N/CCCN(c1ccncc1)c1ccncc1)/c1cc(-c2ccccc2)c2ccc3c(-c4ccccc4)cc(/C=N/CCCN(c4ccncc4)c4ccncc4)nc3c2n1
pIC50 (Leishmania donovani [11]): 5.60
CC50 (HepG2 [12]): 1.64 µM

Structure (SMILES): CC1(C)CC(=O)c2cc(CNC(=O)C/C=C/c3ccccc3)ccc2S1
pIC50 (Leishmania infantum [7]): 4.98
CC50 (J774.A1): 31.6 µM

Structure (SMILES): COC(=O)C1=C(C)NC(=S)NC1c1ccc(Cl)cc1 (centres undefined)
pEC50 (Leishmania major [13]): 4.81

Structure (SMILES): CCCn1c(C)cc(O)c(C(=O)Nc2ccc(Br)cc2)c1=O
pIC50 (Leishmania donovani [1]): 4.26

Structure (SMILES): O=C1NC(=S)N2CCCC12 (centres undefined)
Activity (Leishmania amazonensis [2]): 20%

pIC50 (Leishmania amazonensis [14]): 4.97
Structure (SMILES): O=C(C[Se]CC(=O)Nc1ccc([N+](=O)[O-])cc1)Nc1ccc([N+](=O)[O-])cc1

Structure (SMILES): Cc1ccc2c(NCCCCCNC(=O)c3cccc(/C=C/C(=O)c4ccc(C)o4)c3)ccnc2c1
pIC50 (Leishmania donovani [15]): 6.34

pIC50 (Leishmania donovani [16]): 6.00
Structure (SMILES): CC(=O)N1N=C(c2ccccc2)CC1c1cn(-c2ccc(C)cc2)nc1-c1ccccc1 (centres undefined)
pIC50 (Leishmania donovani [17]): 7.30

pIC50 (Leishmania donovani [16]): 5.84
Structure (SMILES): CCCC(=O)N1N=C(c2ccccc2)CC1c1cn(-c2ccc(Cl)cc2)nc1-c1ccccc1 (centres undefined)
pIC50 (Leishmania donovani [17]): 6.05

Structure (SMILES): C(=N/CCCN(N1CCOCC1)N1CCOCC1)/c1cc(-c2ccccc2)c2ccc3c(-c4ccccc4)cc(/C=N/CCCN(N4CCOCC4)N4CCOCC4)nc3c2n1
pIC50 (Leishmania donovani [11]): 5.60
CC50 (HepG2 [12]): 1.64 µM

Structure (SMILES): CCOC(=O)C1=CNC(=O)NC1c1ccc(C)cc1 (stereo in doubt; 82)
IC50 (Leishmania donovani [18]): 28.3 µg/mL (≈ 109 µM)

Structure (SMILES): CCOC(=O)C1=C(C)NC(C)=C(C(=O)OCC)C1c1cccc(Cl)c1
pEC50 (Leishmania major [13]): 4.98
pEC50 (Leishmania major [19]): 5.66

Structure (SMILES): COC(=O)C1=C(C)NC(C)=C(C(=O)OC)C1c1cccc(Cl)c1
pEC50 (Leishmania major [19]): 5.27

Structure (SMILES): N#C[Se]/C=C/c1ccccc1
pIC50 [9]: 5.43
pIC50 (Leishmania major [10]): 5.48
pIC50 (HT-29): 4.92
pIC50 (NCI-H1299): 4.92

pEC50 (HepG2 [20]): > 4.52
Structure (SMILES): Cc1nc2c3ccccc3c3ccccc3n2c1C(=O)NCc1cn(-c2cccc([N+](=O)[O-])c2)nn1

Structure (SMILES): COc1ccc2nc(C(=O)NCCCN(C)C)ccc2c1
pIC50 (Leishmania donovani [21]): 5.10

Structure (SMILES): CCOC(=O)C1=CNC(=S)NC1c1ccc(Cl)cc1 (centres undefined)
IC50 (Leishmania donovani [18]; Leishmania donovani, 72 h, read-out: IC50): 29.3 µg/mL (≈ 98.7 µM)
